Assay results as given in ChEMBL document CHEMBL5260833, “An overview of quinazolines: Pharmacological significance and recent developments” (Eur J Med Chem, 2018).

What was measured:
[1] = tested on: Staphylococcus aureus; assay: Antibacterial activity against Staphylococcus aureus assessed as zone of inhibition at 100 ppm; type: functional; conditions: read-out: IZ
[2] = tested on: Escherichia coli; assay: Antibacterial activity against Escherichia coli assessed as zone of inhibition at 100 ppm; type: functional; conditions: read-out: IZ
[3] = tested on: Mus musculus; assay: Anticonvulsant activity in ip dosed mouse assessed as reduction in clonus phase; type: functional
[4] = tested on: Mus musculus; assay: Anticonvulsant activity in ip dosed mouse assessed as reduction in tonus phase; type: functional
[5] = tested on: Human immunodeficiency virus 2; assay: Antiviral activity against HIV-2 infected in human MT4 cells assessed as protection against virus-induced cytotoxicity relative to control; type: functional; parameters: concentration or dose not given beside the values
[6] = tested on: Human immunodeficiency virus 1; assay: Antiviral activity against HIV-1 infected in human MT4 cells assessed as protection against virus-induced cytotoxicity relative to control; type: functional; parameters: concentration or dose not given beside the values
[7] = Antiviral activity against Gomphrena mosaic virus relative to control; type: functional, Gomphrena mosiac virus; parameters: concentration or dose not given beside the values
[8] = CNS toxicity in po dosed mouse assessed as depression in CNS; type: organism-based; conditions: in vivo
[9] = tested on: WIL2; assay: Anticancer activity against human WIL2 cell assessed as cell growth inhibition measured after 120 hrs; type: functional, cell-based; conditions: WIL2, 120 h
[10] = tested on: CCRF-CEM; assay: Anticancer activity against human CCRF-CEM cell assessed as cell growth inhibition measured after 120 hrs; type: functional, cell-based
[11] = tested on: Mus musculus; assay: Analgesic activity in […] albino mouse at 20 mg/kg, po measured after 2 hrs by Tail-Flick technique relative to control; type: functional
[12] = organism: Mus musculus; assay: Sedative hypnotic activity in mouse; type: functional; parameters: concentration or dose not given beside the values
[13] = tested on: Canis familiaris; assay: Antiplatelet activity in iv dosed dog assessed as platelet aggregation; type: functional, organism-based; conditions: Canis lupus familiaris
[14] = organism: Homo sapiens; assay: Immunosuppressive activity in human B cell; type: functional, organism-based
[15] = organism: Homo sapiens; assay: Immunosuppressive activity in human T cell; type: functional, organism-based
[16] = tested on: Rattus norvegicus; assay: Antiinflammatory activity in rat at assessed as reduction in paw edema at 200 mg/kg relative to control; type: functional

Cc1nc2ccc(I)cc2c(=O)n1/N=C/c1cc(Br)cc(Br)c1O
zone of inhibition at 100 µg/mL [1]: 16 mm
zone of inhibition at 100 µg/mL [2]: 14 mm

Nc1ccc(-c2nc(S)c3cc4c(cc3n2)OCO4)cc1
ED50 [3]: 68.3 µmol/kg
ED50 [4]: 36.6 µmol/kg

O=c1c2ccccc2nc(S)n1NCn1cnc2ccccc21
Activity [5]: 27%
Activity [6]: 25%

Cc1nc2ccccc2c(=O)n1NCN(C)C
Activity [5]: 25%
Activity [6]: 21%

CC(/N=N/n1cnc2ccccc2c1=O)=N\Nc1ccc(O)cc1
Activity [7]: 15%

CC(/N=N/n1cnc2ccccc2c1=O)=N\Nc1ccc(C)cc1
Activity [7]: 15%

CC(=O)Nc1ccc2nc(CF)n(-c3ccccc3C)c(=O)c2c1
LD50 [8]: > 1000 mg/kg

Cc1nc2ccc(Br)cc2c(=O)n1/N=C/c1cc(Br)cc(Br)c1O
zone of inhibition at 100 µg/mL [1]: 16 mm
zone of inhibition at 100 µg/mL [2]: 14 mm

COC(=O)CCC(NC(=O)c1ccc(NCc2ccc3nc(C)[nH]c(=O)c3c2Cl)s1)C(=O)OC (stereo unspecified)
IC50 [9]: 1800 nM
IC50 [10]: 2100 nM

Oc1nc(-c2ccc(Cl)cc2)nc2cc3c(cc12)OCO3
ED50 [3]: 32.7 µmol/kg

Cc1nc2ccc(Br)cc2c(=O)n1/N=C/c1cc(I)cc(I)c1O
zone of inhibition at 100 µg/mL [1]: 16 mm
zone of inhibition at 100 µg/mL [2]: 14 mm

Cc1nc2ccccc2c(=O)n1NCN1CCOCC1
Activity [5]: 25%
Activity [6]: 21%

CCC(CC)=NNC1=Nc2ccccc2C(=O)C1c1ccccc1 (stereo unspecified)
Activity [11]: 72%

COc1cc(/C=N/n2c(C)nc3ccc(I)cc3c2=O)cc(Br)c1O
zone of inhibition at 100 µg/mL [1]: 16 mm
zone of inhibition at 100 µg/mL [2]: 14 mm

Cc1cccc(-n2c(=O)c3ccccc3n3c(CCl)nnc23)c1
Activity [12]: 4%

COc1cc(N/N=C(C)/N=N/n2cnc3ccccc3c2=O)ccc1O
Activity [7]: 15%

CCCCS(=O)(=O)NC(CC#Cc1ccc2[nH]c(=O)n(CCC3CCNCC3)c(=O)c2c1)C(=O)O (stereo unspecified)
IC50 [13]: 210 nM

Cc1nc2ccc(Br)cc2c(=O)n1/N=C/c1cc(Cl)cc(Cl)c1O
zone of inhibition at 100 µg/mL [1]: 16 mm
zone of inhibition at 100 µg/mL [2]: 14 mm

COc1cc(/C=N/n2c(C)nc3ccc(Br)cc3c2=O)cc(I)c1O
zone of inhibition at 100 µg/mL [1]: 16 mm
zone of inhibition at 100 µg/mL [2]: 14 mm

CCCCS(=O)(=O)NC(CNC(=O)c1ccc2[nH]c(=O)n(CCC3CCNCC3)c(=O)c2c1)C(=O)O (stereo unspecified)
IC50 [13]: 210 nM

CC(=O)Nc1ccc2nc(C[S+](C)[O-])n(-c3ccccc3C)c(=O)c2c1 (stereo unspecified)
LD50 [8]: > 1000 mg/kg

COc1cc(/C=N/n2c(C)nc3ccc(I)cc3c2=O)cc(I)c1O
zone of inhibition at 100 µg/mL [1]: 16 mm
zone of inhibition at 100 µg/mL [2]: 14 mm

Cc1ccccc1-n1c(CF)nc2ccc(NC(=O)CO)cc2c1=O
LD50 [8]: > 1000 mg/kg

Nc1ccc(-c2nc(O)c3cc4c(cc3n2)OCO4)cc1
ED50 [3]: 36.5 µmol/kg
ED50 [4]: 21.6 µmol/kg

CCC(CC)=NNC1=Nc2ccccc2C(=O)C1c1ccc(OC)cc1 (stereo unspecified)
Activity [11]: 64%

Nc1nc2c(c(=O)[nH]1)C[C@@H](CCc1ccc(C(=O)N[C@@H](C[C@@H](F)C(=O)O)C(=O)O)cc1)CN2
IC50 [14]: 2930 nM
IC50 [15]: 2300 nM

O=C(CO)Nc1ccc2nc(CF)n(-c3ccccc3CO)c(=O)c2c1
LD50 [8]: > 1000 mg/kg

CCCCS(=O)(=O)NC(CCCc1ccc2c(c1)c(=O)n(CCC1CCNCC1)c(=O)n2Cc1ccccc1)C(=O)O (stereo unspecified)
IC50 [13]: 210 nM

O=c1c2ccccc2nc(S)n1NCNc1ccccc1
Activity [5]: 27%
Activity [6]: 25%

O=C(O)c1ccc(Cl)cc1-n1c(/C=C/c2ccc(F)cc2)nc2ccccc2c1=O
inhibition in vivo at 200 mg/kg [16]: 62.2%

CN(C)CCC(c1ccc(Cl)cc1)c1ccccn1 (stereo unspecified) [CHLORPHENIRAMINE]
Activity [12]: 25%

Cc1nc2ccc(CN(C)c3ccc(C(=O)N[C@@H](C[C@@H](F)C(=O)O)C(=O)O)s3)cc2c(=O)[nH]1
IC50 [14]: 8.08 nM
IC50 [15]: 5.67 nM

CCCCS(=O)(=O)NC(CCCc1ccc2c(c1)c(=O)n(CCC1CCNCC1)c(=O)n2C)C(=O)O (stereo unspecified)
IC50 [13]: 210 nM

O=C(O)c1ccc(Cl)cc1-n1c(/C=C/c2ccc([N+](=O)[O-])cc2)nc2ccccc2c1=O
inhibition in vivo at 200 mg/kg [16]: 62.2%

CC(=O)Nc1ccc2nc(CO)n(-c3ccccc3C)c(=O)c2c1
LD50 [8]: > 1000 mg/kg

O=C(O)c1ccc(Cl)c(-n2c(/C=C/c3ccc(F)cc3)nc3ccccc3c2=O)c1
inhibition in vivo at 200 mg/kg [16]: 62.2%

O=C([O-])Cc1ccccc1Nc1c(Cl)cccc1Cl.[Na+] [DICLOFENAC SODIUM]
Activity [11]: 60%

Cc1nc2ccc(I)cc2c(=O)n1/N=C/c1cc(Cl)cc(Cl)c1O
zone of inhibition at 100 µg/mL [1]: 16 mm
zone of inhibition at 100 µg/mL [2]: 14 mm

CC(=O)Nc1ccc2nc(CS(C)(=O)=O)n(-c3ccccc3C)c(=O)c2c1
LD50 [8]: > 1000 mg/kg

Nc1nc(N)c2c(CCCc3ccc(C(=O)N[C@@H](C[C@@H](F)C(=O)O)C(=O)O)cc3)c[nH]c2n1
IC50 [14]: 2930 nM
IC50 [15]: 1410 nM

CCCCS(=O)(=O)NC(CCCc1ccc2c(c1)c(=O)n(CCC1CCNCC1)c(=O)n2Cc1ccncc1)C(=O)O (stereo unspecified)
IC50 [13]: 210 nM

O=C(O)c1cc(Br)ccc1-n1c(/C=C/c2ccc([N+](=O)[O-])cc2)nc2ccccc2c1=O
inhibition in vivo at 200 mg/kg [16]: 62.2%

Oc1nc(-c2ccc(F)cc2)nc2cc3c(cc12)OCO3
ED50 [4]: 17.7 µmol/kg

C#CCN(Cc1ccc2nc(C)[nH]c(=O)c2c1)c1ccc(C(=O)N[C@@H](C[C@@H](F)C(=O)O)C(=O)O)cc1
IC50 [14]: 8.08 nM
IC50 [15]: 5.67 nM

Cc1nc2ccccc2c(=O)n1NC(=S)N1CCCC1
Activity [11]: 65%

C#CCN(Cc1ccc2nc(C)[nH]c(=O)c2c1)c1ccc(C(=O)N[C@@H](C[C@H](F)C(=O)O)C(=O)O)cc1
IC50 [14]: 8.08 nM
IC50 [15]: 5.67 nM

CCCc1nnc2n(-c3cccc(C)c3)c(=O)c3ccccc3n12
Activity [12]: 4%

CC(/N=N/n1cnc2ccccc2c1=O)=N\Nc1ccc(Cl)cc1
Activity [7]: 15%

CCc1nnc2n(-c3cccc(C)c3)c(=O)c3ccccc3n12
Activity [12]: 4%

CCN(CC)C(=S)Nn1c(SC)nc2ccccc2c1=O
Activity [11]: 67%

O=C(O)c1cc(Br)ccc1-n1c(/C=C/c2ccc(O)cc2)nc2ccccc2c1=O
inhibition in vivo at 200 mg/kg [16]: 62.2%

COc1cc(/C=N/n2c(C)nc3ccc(Br)cc3c2=O)cc(Br)c1O
zone of inhibition at 100 µg/mL [1]: 16 mm
zone of inhibition at 100 µg/mL [2]: 14 mm

CCCCc1nc2ccccc2c(=O)n1NC(=S)N1CCCC1
Activity [11]: 73%

CC(/N=N/n1cnc2ccccc2c1=O)=N\Nc1ccccc1Cl
Activity [7]: 15%

Nc1nc2c(c(=O)[nH]1)C[C@@H](CCc1ccc(C(=O)N[C@@H](C[C@H](F)C(=O)O)C(=O)O)cc1)CN2
IC50 [14]: 2930 nM
IC50 [15]: 2300 nM

CN(Cc1cnc2nc(N)nc(N)c2n1)c1ccc(C(=O)N[C@@H](CCC(=O)O)C(=O)O)cc1 [METHOTREXATE]
IC50 [14]: 27.5 nM
IC50 [15]: 13.4 nM

COC(=O)CCC(NC(=O)c1ccc(N(C)Cc2ccc3nc(C)[nH]c(=O)c3c2)s1)C(=O)OC (stereo unspecified)
IC50 [9]: 1800 nM
IC50 [10]: 2100 nM

COc1ccc(/C=C/c2nc3ccccc3c(=O)n2-c2cc(C(=O)O)ccc2Cl)cc1
inhibition in vivo at 200 mg/kg [16]: 62.2%

CC(/N=N/n1cnc2ccccc2c1=O)=N\Nc1ccccc1
Activity [7]: 15%

Nc1nc(O)c2c(Cl)c(CNc3ccc(C(=O)NC(CCC(=O)O)C(=O)O)cc3)ccc2n1 (stereo unspecified)
IC50 [9]: 1800 nM
IC50 [10]: 1800 nM

Nc1nc(N)c2c(CCCc3ccc(C(=O)N[C@@H](C[C@H](F)C(=O)O)C(=O)O)cc3)c[nH]c2n1
IC50 [14]: 2930 nM
IC50 [15]: 1410 nM

CCN(CC)C(=S)Nn1c(-c2ccccc2)nc2ccccc2c1=O
Activity [11]: 58%

CCCCS(=O)(=O)NC(CCCc1ccc2[nH]c(=O)n(CCC3CCNCC3)c(=O)c2c1)C(=O)O (stereo unspecified)
IC50 [13]: 210 nM

O=c1c2ccccc2nc(S)n1NCNc1ccccn1
Activity [5]: 27%
Activity [6]: 25%

Cc1nc2ccc(I)cc2c(=O)n1/N=C/c1cc(I)cc(I)c1O
zone of inhibition at 100 µg/mL [1]: 16 mm
zone of inhibition at 100 µg/mL [2]: 14 mm

COc1ccc(N/N=C(C)/N=N/n2cnc3ccccc3c2=O)cc1
Activity [7]: 15%

CC(=O)Nc1ccc2nc(CSCC(NC(C)=O)C(=O)O)n(-c3ccccc3C)c(=O)c2c1 (stereo unspecified)
LD50 [8]: > 1000 mg/kg

CC(=O)Nc1ccc2nc(CF)n(-c3ccccc3CO)c(=O)c2c1
LD50 [8]: > 1000 mg/kg

Cc1cccc(-n2c(=O)c3ccccc3n3c(C)nnc23)c1
Activity [12]: 4%

Oc1nc(-c2ccc(Br)cc2)nc2cc3c(cc12)OCO3
ED50 [3]: 32.7 µmol/kg
ED50 [4]: 27.8 µmol/kg

Cc1cccc(-n2c(=O)c3ccccc3n3cnnc23)c1
Activity [12]: 4%

CC/C(C)=N/n1c(S)nc2sc3c(c2c1=O)CCCC3
Activity [11]: 72%
